Laboratory results as given in US9000012B2 (priority 2009, dated 2015).

Legend:
Phytophthora infestans = assay type: in vivo, Phytophthora infestans on tomato; settings: preventive spray on young tomato plants, 500 ppm of active ingredient, inoculated one day after treatment, evaluated 7 days after inoculation; 0% = untreated control, 100% = no disease
[1] = logP of the compounds of table 1; assay type: physicochemical

| Compound | Efficacy (Phytophthora infestans) [%] | logP [1] |
| --- | --- | --- |
| C#CCC(C)OC(=O)Nc1cccc(CON=C(C(=O)N(C)C)c2ccccc2)n1 (centres unmarked) [Example 101] | 95 | 3.07 |
| CN(C)C(=O)C(=NOCc1cccc(NC(=O)C(F)(F)Oc2ccccc2)n1)c1ccccc1 [Example 110] | 70 | 3.73 |
| CN(C)C(=O)C(=NOCc1cccc(NC(=O)OC(C)(C)C)n1)c1ccccc1 [Example 98] | 85 | 3.37 |
| C#CCCOC(=O)Nc1cccc(CON=C(C(=O)N(C)C)c2ccccc2)n1 [Example 100] | 70 | 1.83 |
| CN(C)C(=O)C(=NOCc1csc(NC(=O)C2COc3ccccc3O2)n1)c1ccccc1 (centres unmarked) [Example 129] | 92 | 3.15 |
| CN(C)C(=O)C(=NOCc1cccc(NC(=O)C2COc3ccccc3O2)n1)c1ccccc1 (centres unmarked) [Example 109] | 98 | 3.42 |
| CNC(=O)C(=NOCc1cccc(NC(=O)C2COc3ccccc3O2)n1)c1ccccc1 (centres unmarked) [Example 75] | 85 | 3.06 |
